Source: paper PMC11981762 (Computational and Structural Biotechnology Journal, 2025)
Changes are numbered by the printed parent chain.

What was measured:
[1] = biological target: T1, human neuronal glycine receptor α1 (Homo sapiens, UniProt P23415); assay: Two-electrode voltage clamp of glycine-evoked current; assay type: cell-based
T1 sequence (P23415 29-457): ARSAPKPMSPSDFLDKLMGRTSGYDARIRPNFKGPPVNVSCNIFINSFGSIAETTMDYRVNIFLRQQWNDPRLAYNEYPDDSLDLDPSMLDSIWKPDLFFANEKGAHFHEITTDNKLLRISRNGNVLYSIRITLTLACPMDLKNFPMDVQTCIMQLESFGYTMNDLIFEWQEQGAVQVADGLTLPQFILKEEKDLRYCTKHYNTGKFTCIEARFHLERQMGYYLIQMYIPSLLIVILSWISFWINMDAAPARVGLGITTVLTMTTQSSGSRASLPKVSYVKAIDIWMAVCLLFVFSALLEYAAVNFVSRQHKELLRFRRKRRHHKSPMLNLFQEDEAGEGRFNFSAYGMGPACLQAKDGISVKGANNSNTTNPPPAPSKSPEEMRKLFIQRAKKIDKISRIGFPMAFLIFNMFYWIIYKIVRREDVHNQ

[2] = biological target: T2, glycine receptor α1 F124A (Homo sapiens, UniProt P23415, F136A); assay type: cell-based
T2 sequence (P23415 29-457 F136A): T1 sequence (P23415 29-457) with F108A

[3] = biological target: T3, glycine receptor α1 D130A (Homo sapiens, UniProt P23415, D142A); assay type: cell-based
T3 sequence (P23415 29-457 D142A): T1 sequence (P23415 29-457) with D114A

[4] = biological target: T4, glycine receptor α1 F124A + D130A (Homo sapiens, UniProt P23415, D142A/F136A); assay type: cell-based; details: double mutant α1 F124A and D130A
T4 sequence (P23415 29-457 F136A/D142A): T1 sequence (P23415 29-457) with F108A, D114A

5-HT3a = biological target: T5, 5-HT3a (Homo sapiens, UniProt P46098); assay: Interaction with ligand-gated channel 5-HT3a
T5 sequence (P46098 24-478): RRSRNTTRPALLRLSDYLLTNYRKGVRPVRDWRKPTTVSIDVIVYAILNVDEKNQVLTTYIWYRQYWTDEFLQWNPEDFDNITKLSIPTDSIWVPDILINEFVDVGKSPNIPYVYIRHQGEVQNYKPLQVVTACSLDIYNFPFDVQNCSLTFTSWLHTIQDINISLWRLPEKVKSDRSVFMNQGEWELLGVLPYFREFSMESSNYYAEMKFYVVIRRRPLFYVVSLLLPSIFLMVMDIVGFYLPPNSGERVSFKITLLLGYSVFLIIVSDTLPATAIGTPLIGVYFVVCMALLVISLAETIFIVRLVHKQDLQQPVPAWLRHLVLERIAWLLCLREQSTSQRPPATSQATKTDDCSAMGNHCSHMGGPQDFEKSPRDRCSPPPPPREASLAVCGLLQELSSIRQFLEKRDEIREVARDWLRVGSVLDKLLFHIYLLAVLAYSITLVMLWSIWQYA

[5] = cited from earlier work
[6] = glycine concentration-response in presence of 10 µM EG
[7] = glycine concentration-response in presence of 100 µM EG

## CN1C[C@H](C(=O)N[C@]2(C)O[C@@]3(O)[C@@H]4CCCN4C(=O)[C@H](Cc4ccccc4)N3C2=O)C=C2c3cccc4[nH]cc(c34)C[C@H]21 [ergotamine]
[1]
  IC50: 5.7 ± 0.7 µM
[1]; application of ergotamine and glycine or glycine alone, voltage ramp −100 to +60 mV
  reversal potential: approximately 0 mV
[1]; ergotamine 10 µM + 100 µM glycine, at +60 mV
  inhibition of IGly in voltage ramp: 42.3 ± 6.2%
[1]; ergotamine 10 µM + 100 µM glycine, at −100 mV
  inhibition of IGly in voltage ramp: 39.9 ± 4.8%
[1]; ergotamine 100 µM + 100 µM glycine, at +60 mV
  inhibition of IGly in voltage ramp: 74.6 ± 5.4%
[1]; ergotamine 100 µM + 100 µM glycine, at −100 mV
  inhibition of IGly in voltage ramp: 71.9 ± 4.1%
[1]; ergotamine 10 or 100 µM + 100 µM glycine, ramps −100 to +60 mV
  voltage dependence of inhibition (current-voltage relationship): voltage insensitive
[1]; ergotamine and glycine co-application, washout
  reversibility of inhibition of IGly: reversible
[1]; glycine 0–100 µM with or without ergotamine 10 or 100 µM
  relation between glycine and ergotamine (competition test): non-competitive
[1]; [6]
  Imax (maximum response) of glycine-induced current: 53.9 ± 2.3
  nH (Hill's coefficient) of glycine-induced current: 1.2 ± 0.2
[1]; [7]
  Imax (maximum response) of glycine-induced current: 31.7 ± 0.5
  nH (Hill's coefficient) of glycine-induced current: 0.9 ± 0.2
[1]; prolonged glycine application
  effect on desensitization: did not alter desensitization kinetics or induce desensitization
[1]; read-out: inhibition of the current stimulated by 100 µM glycine
  inhibition at 10 µM: 59.8 ± 2.9%
[1]; various concentrations of ergotamine without glycine, holding potential −80 mV
  effect of ergotamine alone on IGly: no effect
[1]; α1 wild
  nH (Hill's coefficient): 1.2 ± 0.2
[1]; α1 wild, 100 µM glycine, −80 mV
  Imax (maximum response) of ergotamine inhibition of glycine-evoked current: 91.5 ± 2.2
[2]
  IC50: 25.7 ± 2.9 µM
[2]; α1 F124A
  Imax (maximum response) of ergotamine inhibition of glycine-evoked current: 42.4 ± 1.5
  nH (Hill's coefficient): 1.3 ± 0.1
[3]
  IC50: 28.1 ± 9.7 µM
[3]; α1 D130A
  Imax (maximum response) of ergotamine inhibition of glycine-evoked current: 32.1 ± 8.8
  nH (Hill's coefficient): 1.1 ± 0.3
[4]
  Hill coefficient: 1.9 ± 0.6
5-HT3a
  interaction with 5-HT3a: does not interact
[5]
  penetration across the blood-brain barrier: relatively poor penetration

## NCC(=O)O [glycine]
[1]; Control, absence of ergotamine
  nH (Hill's coefficient) of glycine-induced current: 1.1 ± 0.3
[1]; Control, absence of ergotamine, glycine 0.3 to 100 µM, −80 mV
  Imax (maximum response) of glycine-induced current: 99.6 ± 2.4
